For 21 compounds, IC50 results are on record in patent US5990146A, “Benzimidazoles for inhibiting protein tyrosine kinase mediated cellular proliferation” (Warner-Lambert Company, priority 1998, dated 1999).

Where a name gives a salt, the structure may show the parent alone.

Common to all, as to format: biochemical
The target of experiment [1] is T1, Human EGF receptor tyrosine kinase (Homo sapiens, UniProt P00533).
T1 construct: Human EGF receptor tyrosine kinase is isolated from A431 human epidermoid carcinoma cells; endogenous in cells; host or cells: A431 human epidermoid carcinoma cells (detergent lysate, fast Q sepharose fractions)
The experiment in a line: EGFr tyrosine kinase assay. Conditions: Table 1; 10 μM ATP, 25° C., 10 minutes.

The next experiment deals with T2, insulin receptor (INSr) (Homo sapiens, UniProt P06213).
T2 construct: An assay using the intracellular kinase domains of insulin receptor (INSr) is performed
The experiment in a line: Insulin receptor kinase assay. Conditions: Table 1; as for EGF receptor with 10 mM manganese chloride.

Experiment [2] deals with T3, PDGF receptor tyrosine kinase (mouse PDGF-β) (Mus musculus, UniProt P05622).
T3 construct: PCR primers are designed to amplify a fragment of DNA that codes for the intracellular tyrosine kinase domain; made in house; host or cells: Sf9 insect cells (baculovirus), cell lysate
The experiment in a line: PDGFr tyrosine kinase assay (poly glutamate-tyrosine phosphorylation). To be noted: Table 1; 10 minutes at 25° C. The protocol:
Platelet Derived Growth Factor Receptor (PDGFr) and Fibroblast Growth Factor Receptor (FGFr)
Full length cDNAs for the mouse PDGF-β and human FGF-1 (flg) receptor tyrosine kinases were obtained from J. Escobedo and are prepared as described in J. Biol. Chem., 262: 1482-1487 (1991). PCR primers are designed to amplify a fragment of DNA that codes for the intracellular tyrosine kinase domain. The fragment is melded into a baculovirus vector, cotransfected with AcMNPV DNA, and the recombinant virus isolated. SF9 insect cells are infected with the virus to overexpress the protein, and the cell lysate is used for the assay.
The assay is performed in 96-well plates (100 μL/incubation/well), and conditions are optimized to measure the incorporation of ^32 p from [γ^32 P]-ATP into a glutamate-tyrosine copolymer substrate. Briefly, to each well is added 82.5 μL of incubation buffer containing 25 mM Hepes (pH 7.0), 150 mM NaCl, 0.1% Triton X-100, 0.2 mM PMSF, 0.2 mM sodium vanadate, 10 mM manganese chloride, and 750 μg/mL of poly (4:1) glutamate-tyrosine followed by 2.5 μL of inhibitor and 5 μL of enzyme lysate (7.5 μg/μL FGFR-TK or 6.0 μg/μL PDGFR-TK) to initiate the reaction. Following a 10 minute incubation at 25° C., 10 μL of [γ^32 P]-ATP (0.4 μCi plus 50 μM ATP) is added to each well and samples are incubated for an additional 10 minutes at 25° C. The reaction is terminated by the addition of 100 μL of 30% trichloroacetic acid (TCA) containing 20 mM sodium pyrophosphate and precipitation of material onto glass fiber filter mats (Wallac). Filters are washed 3 times with 15% TCA containing 100 mM sodium pyrophosphate and the radioactivity retained on the filters counted in a Wallac 1250 Betaplate reader. Nonspecific activity is defined as radioactivity retained on the filters following incubation of samples with buffer alone (no enzyme). Specific enzymatic activity is defined as total activity (enzyme plus buffer) minus nonspecific activity.

A further experiment concerns the target T4, c-Src (Homo sapiens, UniProt P12931).
T4 construct: made in house; host or cells: baculovirus infected insect cells
The experiment in a line: c-Src kinase assay. Conditions: Table 1; 5 μM ATP, room temperature, 10 minutes. Here is the method: c-Src kinase is purified from baculovirus infected insect cell lysates using an antipeptide monoclonal antibody directed against the N-terminal 2-17 amino acids as described previously by Fry, et al, Anticancer Drug Design. 9: 331-351 (1994). […] At the end of the lysate incubation, the beads are rinsed 3 times in lysis buffer, resuspended in lysis buffer containing 10% glycerol, and frozen. These latex beads are thawed, rinsed 3 times in assay buffer which is comprised of 40 mM tris pH 7.5, 5 mM magnesium chloride, and suspended in the same buffer. […] The reaction is started at room temperature by addition of the ATP and quenched 10 minutes later by the addition of 125 μL of 30% TCA, 0.1 M sodium pyrophosphate for 15 minutes on ice. The plate is then filtered and the wells washed with two 250-μL aliquots of 15% TCA, 0.1 M pyrophosphate. The filters are punched, counted in a liquid scintillation counter, and the data examined for inhibitory activity in comparison to a known inhibitor such as erbstatin. The method is described more fully in J. Med. Chem., 37: 598-609 (1994).

Experiment [3] deals with T5, FGF receptor tyrosine kinase (human FGF-1 (flg)) (Homo sapiens, UniProt P11362).
T5 construct: PCR primers are designed to amplify a fragment of DNA that codes for the intracellular tyrosine kinase domain; made in house; host or cells: Sf9 insect cells (baculovirus), cell lysate
The experiment in a line: FGFr tyrosine kinase assay (poly glutamate-tyrosine phosphorylation). To be noted: Table 1; 10 minutes at 25° C. The protocol:
Platelet Derived Growth Factor Receptor (PDGFr) and Fibroblast Growth Factor Receptor (FGFr) Full length cDNAs for the mouse PDGF-β and human FGF-1 (flg) receptor tyrosine kinases were obtained from J. Escobedo and are prepared as described in J. Biol. Chem., 262: 1482-1487 (1991). PCR primers are designed to amplify a fragment of DNA that codes for the intracellular tyrosine kinase domain. The fragment is […] into a baculovirus vector, cotransfected with AcMNPV DNA, and the recombinant virus isolated. SF9 insect cells are infected with the virus to overexpress the protein, and the cell lysate is used for the […] and FGFr The assay is performed in 96-well plates (100 μL/incubation/well), and conditions are optimized to measure the incorporation of ^32 p from [γ^32 P]-ATP into a glutamate-tyrosine copolymer substrate. […] The reaction is terminated by the addition of 100 μL of 30% trichloroacetic acid (TCA) containing 20 mM sodium pyrophosphate and precipitation of material onto glass fiber filter mats (Wallac). Filters are washed 3 times with 15% TCA containing 100 mM sodium pyrophosphate and the radioactivity retained on the filters counted in a Wallac 1250 Betaplate reader. Nonspecific activity is defined as radioactivity retained on the filters following incubation of samples with buffer alone (no enzyme). Specific enzymatic activity is defined as total activity (enzyme plus buffer) minus nonspecific activity.

T1 sequence (P00533 25-1210): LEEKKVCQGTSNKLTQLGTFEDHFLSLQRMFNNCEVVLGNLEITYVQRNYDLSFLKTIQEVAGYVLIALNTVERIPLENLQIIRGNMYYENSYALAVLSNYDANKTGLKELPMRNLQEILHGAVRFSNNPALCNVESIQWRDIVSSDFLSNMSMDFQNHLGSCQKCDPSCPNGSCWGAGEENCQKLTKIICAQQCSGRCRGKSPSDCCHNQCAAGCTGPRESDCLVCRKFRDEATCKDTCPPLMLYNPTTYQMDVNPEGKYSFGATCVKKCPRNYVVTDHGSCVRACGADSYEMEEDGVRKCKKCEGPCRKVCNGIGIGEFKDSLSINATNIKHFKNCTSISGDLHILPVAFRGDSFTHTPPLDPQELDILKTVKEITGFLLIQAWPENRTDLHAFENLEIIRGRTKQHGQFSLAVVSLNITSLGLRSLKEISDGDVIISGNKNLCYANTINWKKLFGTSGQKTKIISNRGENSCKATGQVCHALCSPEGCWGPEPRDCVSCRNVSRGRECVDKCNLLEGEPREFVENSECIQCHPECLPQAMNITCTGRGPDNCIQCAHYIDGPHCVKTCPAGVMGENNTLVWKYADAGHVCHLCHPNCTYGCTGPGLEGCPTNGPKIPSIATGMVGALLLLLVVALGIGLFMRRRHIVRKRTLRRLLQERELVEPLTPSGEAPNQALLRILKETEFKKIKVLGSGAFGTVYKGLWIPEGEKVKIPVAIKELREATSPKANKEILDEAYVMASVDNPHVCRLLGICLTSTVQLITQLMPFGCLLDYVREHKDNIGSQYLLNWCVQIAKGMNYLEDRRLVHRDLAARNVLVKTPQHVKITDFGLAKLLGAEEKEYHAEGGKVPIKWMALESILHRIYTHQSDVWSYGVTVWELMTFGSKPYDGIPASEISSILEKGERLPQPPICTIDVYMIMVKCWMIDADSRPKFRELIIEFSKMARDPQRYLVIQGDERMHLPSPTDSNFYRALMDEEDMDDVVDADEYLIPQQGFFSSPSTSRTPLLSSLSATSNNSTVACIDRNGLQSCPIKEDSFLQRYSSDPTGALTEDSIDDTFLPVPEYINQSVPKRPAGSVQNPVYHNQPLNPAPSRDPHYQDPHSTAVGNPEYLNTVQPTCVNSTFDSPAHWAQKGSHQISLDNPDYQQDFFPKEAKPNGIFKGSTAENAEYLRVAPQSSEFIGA
T4 sequence (P12931 whole entry, species assumed): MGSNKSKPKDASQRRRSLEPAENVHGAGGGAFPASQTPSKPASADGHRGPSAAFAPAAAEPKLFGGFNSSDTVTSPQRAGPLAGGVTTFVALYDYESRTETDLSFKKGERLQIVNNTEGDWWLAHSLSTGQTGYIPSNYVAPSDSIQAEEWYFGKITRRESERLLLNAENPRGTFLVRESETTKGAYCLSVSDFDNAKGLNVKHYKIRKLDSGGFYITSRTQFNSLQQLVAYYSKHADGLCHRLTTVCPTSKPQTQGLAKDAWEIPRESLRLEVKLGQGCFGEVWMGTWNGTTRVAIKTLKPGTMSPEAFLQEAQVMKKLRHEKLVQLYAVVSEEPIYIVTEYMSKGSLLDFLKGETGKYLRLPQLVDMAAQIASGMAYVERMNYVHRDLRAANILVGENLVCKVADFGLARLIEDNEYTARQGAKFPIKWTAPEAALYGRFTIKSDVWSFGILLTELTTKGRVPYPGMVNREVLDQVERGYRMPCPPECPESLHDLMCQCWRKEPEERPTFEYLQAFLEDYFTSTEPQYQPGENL
T2 sequence (P06213 1023-1298 limits assumed, species assumed): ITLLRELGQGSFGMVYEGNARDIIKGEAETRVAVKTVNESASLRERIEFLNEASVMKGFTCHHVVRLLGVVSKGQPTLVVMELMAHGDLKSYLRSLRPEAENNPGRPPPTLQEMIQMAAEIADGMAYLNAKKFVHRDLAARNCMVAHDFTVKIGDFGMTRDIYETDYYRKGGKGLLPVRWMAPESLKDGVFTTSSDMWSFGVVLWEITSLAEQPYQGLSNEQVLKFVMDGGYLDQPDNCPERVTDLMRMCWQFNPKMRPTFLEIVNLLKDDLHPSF
T3 sequence (P05622 599-961 limits assumed): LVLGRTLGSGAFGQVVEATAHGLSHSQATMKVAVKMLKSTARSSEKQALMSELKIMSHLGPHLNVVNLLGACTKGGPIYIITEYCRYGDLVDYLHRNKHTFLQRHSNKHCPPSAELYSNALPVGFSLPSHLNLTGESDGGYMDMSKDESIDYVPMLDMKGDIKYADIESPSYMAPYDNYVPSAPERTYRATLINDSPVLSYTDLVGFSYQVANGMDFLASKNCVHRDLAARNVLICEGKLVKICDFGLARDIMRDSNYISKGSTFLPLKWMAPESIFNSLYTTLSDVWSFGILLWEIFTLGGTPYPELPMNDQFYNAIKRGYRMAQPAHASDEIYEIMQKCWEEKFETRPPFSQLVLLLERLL
T5 sequence (P11362 478-767 limits assumed): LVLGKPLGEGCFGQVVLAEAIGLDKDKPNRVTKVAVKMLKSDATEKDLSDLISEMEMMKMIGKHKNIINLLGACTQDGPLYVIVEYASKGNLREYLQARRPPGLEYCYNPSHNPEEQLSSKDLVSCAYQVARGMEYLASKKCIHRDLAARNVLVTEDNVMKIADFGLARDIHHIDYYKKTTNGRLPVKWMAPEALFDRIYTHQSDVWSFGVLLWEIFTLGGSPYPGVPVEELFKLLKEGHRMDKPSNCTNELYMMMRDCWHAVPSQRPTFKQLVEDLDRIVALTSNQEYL

Turning to `c1ccc(-n2cnc3ccccc32)cc1` [Example 1, 1-Phenylbenzimidazole], the half-maximal inhibitory concentration (IC50) (in experiment [1]; against insulin receptor (INSr)) was more than 50 µM each time.
As to `Nc1cccc(-n2cnc3ccccc32)c1` [Example 3, 1-(3-Aminophenyl)benzimidazole], the IC50 (as a rule, the concentration that gives 50% inhibition) is 3.6 µM in experiment [2], more than 50 µM at c-Src, more than 50 µM in experiment [1] and more than 50 µM on insulin receptor (INSr).
On to `COC(=O)c1ccc(-n2cnc3ccccc32)cc1` [Example 7, 1-(4-Carbomethoxyphenyl)benzimidazole], for which the IC50 in experiment [2] was 7.2 µM; in experiment [3] it was more than 50 µM; against c-Src, more than 50 µM; in experiment [1], more than 50 µM; at insulin receptor (INSr) it was more than 50 µM.
Turning to `Cc1ccc2c(c1)ncn2-c1ccccc1` [Example 12, 5-Methyl-1-phenylbenzimidazole Hydrochloride], the 50% inhibitory concentration (IC50) in experiment [2] is 4.4 µM; in experiment [3], more than 50 µM; against c-Src it was more than 50 µM; in experiment [1], 50 µM; against insulin receptor (INSr), more than 50 µM.
Take `Oc1ccc2c(c1)ncn2-c1ccccc1` [Example 14, 5-Hydroxy-1-phenylbenzimidazole]: the IC50 in experiment [2] is 0.4 µM; in experiment [3], 6.4 µM; in experiment [1], more than 50 µM; against insulin receptor (INSr) it was more than 50 µM.
Turning to `O=C(O)c1ccc2c(c1)ncn2-c1ccccc1` [Example 16, 1-Phenylbenzimidazole-5-carboxylic Acid Hydrochloride], the IC50 in experiment [2] was 9.3 µM; in experiment [3], 28 µM; against c-Src, 50 µM; in experiment [1], more than 50 µM; against insulin receptor (INSr), more than 50 µM.
For `COC(=O)c1ccc2c(c1)ncn2-c1ccccc1` [Example 17, Methyl 1-Phenylbenzimidazole-5-carboxylate], the half-inhibitory concentration (IC50) in experiment [2] was 0.8 µM; in experiment [3], 6.6 µM; at c-Src it was more than 50 µM; in experiment [1] it was more than 50 µM; on insulin receptor (INSr), more than 50 µM.
Consider `NC(=O)c1ccc2c(c1)ncn2-c1ccccc1` [Example 18, 1-Phenylbenzimidazole-5-carboxamide Hydrochloride], for which the IC50 was 1.6 µM in experiment [2]; 9.9 µM in experiment [3]; less than 50 µM against c-Src; more than 50 µM in experiment [1]; more than 50 µM against insulin receptor (INSr).
As for `Nc1ccc2c(c1)ncn2-c1ccccc1` [Example 19, 5-Amino-1-phenylbenzimidazole], the IC50 in experiment [2] is 2.7 µM; in experiment [3] it was 36 µM; against c-Src, more than 50 µM; in experiment [1] it was more than 50 µM; on insulin receptor (INSr), more than 50 µM.
`c1ccc(-n2cnc3cnccc32)cc1` [Example 22, 1-Phenylimidazo-1H-imidazol[4,5-c]pyridine Hydrochloride]: the IC50 is 10 µM in experiment [2], 49 µM in experiment [3], more than 50 µM at c-Src and more than 50 µM against insulin receptor (INSr).
For the compound `CC(=O)Nc1ccc2c(c1)ncn2-c1ccccc1` [Example 23, 5-Acetamido-1-phenylbenzimidazole Hydrochloride], the IC50 was 3.3 µM in experiment [2], 32 µM in experiment [3], less than 50 µM at c-Src and more than 50 µM against insulin receptor (INSr).
Consider `CCC(=O)Nc1ccc2c(c1)ncn2-c1ccccc1` [Example 24, 5-Propionamido-1-phenylbenzimidazole Hydrochloride], for which the IC50 was 2.4 µM in experiment [2], 41 µM in experiment [3], more than 50 µM against c-Src and more than 50 µM against insulin receptor (INSr).
With `CCCOc1ccc2c(c1)ncn2-c1ccccc1` [Example 29, 1-Phenyl-5-propoxybenzimidazole hydrochloride], the 50% inhibitory concentration (IC50) was 0.3 µM in experiment [2], 35 µM in experiment [3], more than 50 µM against c-Src and more than 50 µM against insulin receptor (INSr).
As for `C=CCOc1ccc2c(c1)ncn2-c1ccccc1` [Example 32, 5-Allyloxy-1-phenylbenzimidazole Hydrochloride], the IC50 in experiment [2] was 0.6 µM; in experiment [3] it was 35 µM; on c-Src it was more than 50 µM; at insulin receptor (INSr), more than 50 µM.
`NCCOc1ccc2c(c1)ncn2-c1ccccc1` [Example 35, 5-(2-Aminoethoxy)-1-phenylbenzimidazole Dihydrochloride]: the IC50 was 0.7 µM in experiment [2], 27 µM in experiment [3], less than 50 µM against c-Src and more than 50 µM at insulin receptor (INSr).
For the compound `CN(C)CCOc1ccc2c(c1)ncn2-c1ccccc1` [Example 36, 5-[2-(N,N-Dimethylamino)ethoxy]-1-phenylbenzimidazole Dihydrochloride], the concentration for half-maximal inhibition (IC50) is 1.5 µM in experiment [2], 45 µM in experiment [3], 29 µM against c-Src and more than 50 µM against insulin receptor (INSr).
In the case of `Oc1ccc2ncn(-c3ccccc3)c2c1` [Example 41, 6-Hydroxy-1-phenylbenzimidazole Hydrochloride], the IC50 in experiment [2] is 2.1 µM; at c-Src it was more than 50 µM; in experiment [1], more than 50 µM; against insulin receptor (INSr), less than 50 µM.
Regarding `COC(=O)c1ccc2ncn(-c3ccccc3)c2c1` [Example 43, Methyl 1-phenylbenzimidazole-6-carboxylate Hydrochloride], the IC50 was 13 µM in experiment [2], more than 50 µM on c-Src, more than 50 µM in experiment [1] and more than 50 µM against insulin receptor (INSr).
With `COC(=O)c1cc2c(cc1OC)ncn2-c1ccccc1` [Example 51, Methyl 5-methoxy-1-phenylbenzimidazole-6-carboxylate Hydrochloride], the IC50 was 0.9 µM in experiment [2], 50 µM in experiment [3], 33 µM at c-Src and more than 50 µM at insulin receptor (INSr).
Turning to `COc1cc2ncn(-c3ccccc3)c2cc1CO` [Example 53, 6-Hydroxymethyl-5-methoxy-1-phenylbenzimidazole Hydrochloride], the half-maximal inhibitory concentration (IC50) in experiment [2] is 0.4 µM; in experiment [3] it was 12 µM; on c-Src, 50 µM; against insulin receptor (INSr), more than 50 µM.
The corresponding values for `COc1ccc2c(c1)ncn2-c1cccs1` [Example 55, 5-Methoxy-1-(2-thienyl)benzimidazole Hydrochloride] are 2.5 µM, 5.3 µM, more than 50 µM and more than 50 µM.
